Where two headings read alike, the source gives them in different places.
Columns and labels:
[1] = molecular target: human orexin-1 receptor (Homo sapiens (Human), UniProt O43613); experiment: In vitro intracellular calcium measurements (FLIPR), antagonistic activity on orexin-1 receptor; format: cell-based; settings: read-out: IC50 OX1
Method: (§1) In Vitro Assay: Intracellular Calcium Measurements:
(§2) Chinese hamster ovary (CHO) cells expressing the human orexin-1 receptor and the human orexin-2 receptor, respectively, are grown in culture medium (Ham F-12 with L-Glutamine) containing 300 μg/mL G418, 100 U/mL penicillin, 100 μg/mL streptomycin and 10% heat inactivated fetal calf serum (FCS). The cells are seeded at 20′000 cells/well into 384-well black clear bottom sterile plates (Greiner). The seeded plates are incubated overnight at 37° C. in 5% CO2.
(§3) Within the Fluorescent Imaging Plate Reader (FLIPR Tetra, Molecular Devices), antagonists are added to the plate in a volume of 10 μL/well, incubated for 120 min and finally 10 μL/well of agonist is added. Fluorescence is measured for each well at 1 second intervals, and the height of each fluorescence peak is compared to the height of the fluorescence peak induced by 3 nM orexin-A with vehicle in place of antagonist. […] Optimized conditions were achieved by adjustment of pipetting speed and cell splitting regime. The calculated IC50 values may fluctuate depending on the daily cellular assay performance. Fluctuations of this kind are known to those skilled in the art.

[2] = molecular target: human orexin-2 receptor (Homo sapiens (Human), UniProt O43614); experiment: In vitro intracellular calcium measurements (FLIPR), antagonistic activity on orexin-2 receptor; format: cell-based; settings: read-out: IC50 OX2
Method: as §1, §2, §3

[3] = CHO cells expressing human orexin-1 receptor, FLIPR, 3 nM orexin-A agonist, 120 min antagonist incubation, geometric mean if determined several times
[4] = CHO cells expressing human orexin-2 receptor, FLIPR, 3 nM orexin-A agonist, 120 min antagonist incubation, geometric mean if determined several times

Sequence of human orexin-2 receptor (O43614 whole entry): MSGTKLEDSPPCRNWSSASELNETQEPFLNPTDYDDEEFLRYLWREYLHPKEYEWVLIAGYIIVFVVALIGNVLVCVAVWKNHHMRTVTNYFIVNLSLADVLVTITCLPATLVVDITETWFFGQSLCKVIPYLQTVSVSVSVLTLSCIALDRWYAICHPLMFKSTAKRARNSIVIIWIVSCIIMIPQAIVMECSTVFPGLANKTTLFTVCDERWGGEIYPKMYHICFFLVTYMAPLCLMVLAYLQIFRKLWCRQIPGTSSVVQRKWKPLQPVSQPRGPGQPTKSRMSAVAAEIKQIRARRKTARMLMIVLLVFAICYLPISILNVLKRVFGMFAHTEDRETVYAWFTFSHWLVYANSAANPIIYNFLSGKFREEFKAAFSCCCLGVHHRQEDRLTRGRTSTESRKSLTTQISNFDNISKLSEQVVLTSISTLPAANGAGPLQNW
Sequence of human orexin-1 receptor (O43613 whole entry): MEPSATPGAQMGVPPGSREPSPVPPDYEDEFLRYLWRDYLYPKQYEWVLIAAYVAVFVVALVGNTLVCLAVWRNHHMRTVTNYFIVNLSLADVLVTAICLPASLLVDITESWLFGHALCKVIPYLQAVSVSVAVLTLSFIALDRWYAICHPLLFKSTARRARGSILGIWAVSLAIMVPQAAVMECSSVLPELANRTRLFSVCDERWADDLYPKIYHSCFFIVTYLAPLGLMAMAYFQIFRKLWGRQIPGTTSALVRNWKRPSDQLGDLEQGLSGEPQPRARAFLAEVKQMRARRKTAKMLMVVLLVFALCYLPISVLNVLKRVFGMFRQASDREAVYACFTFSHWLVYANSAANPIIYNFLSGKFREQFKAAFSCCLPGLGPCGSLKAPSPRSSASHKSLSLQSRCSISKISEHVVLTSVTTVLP

| Structure (SMILES) | IC50 [1, 3] [nM] | IC50 [2, 4] [nM] | IC50 [1] [nM] | IC50 [2] [nM] |
| --- | --- | --- | --- | --- |
| Cc1ccc(-n2nccn2)c(C(=O)N2CCO[C@@H](C)[C@H]2Cc2cccc(-n3nccn3)c2)c1 (single isomer, unassigned) [Example 162, [(2S,3R)-2-Methyl-3-(3-[1,2,3]triazol-2-yl-benzyl)-morpholin-4-yl]-(5-methyl-2-[1,2,3]triazol-2-yl-phenyl)-methanone or [(2R,3R)-2-Methyl-3-(3-[1,2,3]triazol-2-yl-benzyl)-morpholin-4-yl]-(5-methyl-2-[1,2,3]triazol-2-yl-phenyl)-methanone] | 24 | 2530 | – | – |
| Cc1cccc(C(=O)N2CCO[C@@H](C)[C@H]2Cc2cccc(-n3nccn3)c2)c1-n1nccn1 (single isomer, unassigned) [Example 164, [(2S,3R)-2-Methyl-3-(3-[1,2,3]triazol-2-yl-benzyl)-morpholin-4-yl]-(3-methyl-2-[1,2,3]triazol-2-yl-phenyl)-methanone or [(2R,3R)-2-Methyl-3-(3-[1,2,3]triazol-2-yl-benzyl)-morpholin-4-yl]-(3-methyl-2-[1,2,3]triazol-2-yl-phenyl)-methanone] | 29 | 4040 | – | – |
| Cc1ccc(-n2nccn2)c(C(=O)N2CCO[C@H](C)[C@H]2Cc2cccc(-n3nccn3)c2)c1 (single isomer, unassigned) [Example 167, [(2R,3R)-2-Methyl-3-(3-[1,2,3]triazol-2-yl-benzyl)-morpholin-4-yl]-(5-methyl-2-[1,2,3]triazol-2-yl-phenyl)-methanone or [(2S,3R)-2-Methyl-3-(3-[1,2,3]triazol-2-yl-benzyl)-morpholin-4-yl]-(5-methyl-2-[1,2,3]triazol-2-yl-phenyl)-methanone] | 19 | 2380 | – | – |
| COc1ccc(C[C@@H]2COCCN2C(=O)c2ccccc2-n2nccn2)cc1-c1cccs1 [Example 10, [(R)-3-(4-Methoxy-3-thiophen-2-yl-benzyl)-morpholin-4-yl]-(2-[1,2,3]triazol-2-yl-phenyl)-methanone] | 0.5 | 31 | – | – |
| O=C(c1ccccc1-n1nccn1)N1CCOC[C@@H]1Cc1cccc(-n2nccn2)c1 [Example 13, [(S)-3-(3-[1,2,3]Triazol-2-yl-benzyl)-morpholin-4-yl]-(2-[1,2,3]triazol-2-yl-phenyl)-methanone] | 966 | 4440 | – | – |
| O=C(c1ccccc1-n1nccn1)N1CCOC[C@H]1Cc1ccc(O)c(-c2ncccn2)c1 [Example 55, [(R)-3-(4-Hydroxy-3-pyrimidin-2-yl-benzyl)-morpholin-4-yl]-(2-[1,2,3]triazol-2-yl-phenyl)-methanone] | 27 | 2010 | – | – |
| Cc1ccc(C(=O)N2[C@H](Cc3cccc(-n4nccn4)c3)COC[C@H]2C)c(-n2nccn2)c1 [Example 69, [(3R,5R)-3-Methyl-5-(3-[1,2,3]triazol-2-yl-benzyl)-morpholin-4-yl]-(4-methyl-2-[1,2,3]triazol-2-yl-phenyl)-methanone] | – | – | 0.9 | 314 |
| Cc1cccc(C(=O)N2[C@H](Cc3cccc(-n4nccn4)c3)COC[C@H]2C)c1-n1nccn1 [Example 70, [(3R,5R)-3-Methyl-5-(3-[1,2,3]triazol-2-yl-benzyl)-morpholin-4-yl]-(3-methyl-2-[1,2,3]triazol-2-yl-phenyl)-methanone] | 5 | 2610 | – | – |
| Cc1cccc(C(=O)N2[C@H](Cc3cccc(-n4nccn4)c3)COC[C@@H]2C)c1-n1nccn1 [Example 72, [(3S,5R)-3-Methyl-5-(3-[1,2,3]triazol-2-yl-benzyl)-morpholin-4-yl]-(3-methyl-2-[1,2,3]triazol-2-yl-phenyl)-methanone] | 8 | 2460 | – | – |
| Cc1cc(C(=O)N2[C@H](Cc3cccc(-n4nccn4)c3)COC[C@@H]2C)c(-n2nccn2)cc1C [Example 74, (4,5-Dimethyl-2-[1,2,3]triazol-2-yl-phenyl)-[(3S,5R)-3-methyl-5-(3-[1,2,3]triazol-2-yl-benzyl)-morpholin-4-yl]-methanone] | 11 | 355 | – | – |

Further lines, with some results ahead:

| IC50 [1, 3] [nM] | IC50 [2, 4] [nM] | Structure (SMILES) | IC50 [1] [nM] | IC50 [2] [nM] |
| --- | --- | --- | --- | --- |
| 11 | 1400 | Cc1ccc(-n2nccn2)c(C(=O)N2CCOC[C@H]2Cc2cccc(-c3cccnc3)c2)c1 [Example 25, (5-Methyl-2-[1,2,3]triazol-2-yl-phenyl)-[(R)-3-(3-pyridin-3-yl-benzyl)-morpholin-4-yl]-methanone] | – | – |
| 1 | 131 | Cc1ccc(-n2nccn2)c(C(=O)N2CCOC[C@H]2Cc2cccc(-n3cccc3)c2)c1 [Example 38, (5-Methyl-2-[1,2,3]triazol-2-yl-phenyl)-[(R)-3-(3-pyrrol-1-yl-benzyl)-morpholin-4-yl]-methanone] | – | – |
| 34 | 762 | Cc1ccnc(-c2cccc(C[C@@H]3COCCN3C(=O)c3ccccc3-n3nccn3)c2)n1 [Example 40, {(R)-3-[3-(4-Methyl-pyrimidin-2-yl)-benzyl]-morpholin-4-yl}-(2-[1,2,3]triazol-2-yl-phenyl)-methanone] | – | – |
| 8 | 1040 | Cc1ccc(-n2nccn2)c(C(=O)N2CCOC[C@H]2Cc2cccc(-c3cnccn3)c2)c1 [Example 41, (5-Methyl-2-[1,2,3]triazol-2-yl-phenyl)-[(R)-3-(3-pyrazin-2-yl-benzyl)-morpholin-4-yl]-methanone] | – | – |
| 0.1 | 119 | Cc1ccc(-n2nccn2)c(C(=O)N2CCOC[C@H]2Cc2cccc(-c3cccs3)c2)c1 [Example 45, (5-Methyl-2-[1,2,3]triazol-2-yl-phenyl)-[(R)-3-(3-thiophen-2-yl-benzyl)-morpholin-4-yl]-methanone] | – | – |
| 0.5 | 163 | O=C(c1ccccc1-n1nccn1)N1CCOC[C@H]1Cc1cccc(-c2cccs2)c1 [Example 46, [(R)-3-(3-Thiophen-2-yl-benzyl)-morpholin-4-yl]-(2-[1,2,3]triazol-2-yl-phenyl)-methanone] | – | – |
| 9 | 49 | COc1ccc(C[C@@H]2COCCN2C(=O)c2c(C)cccc2-n2nccn2)cc1-c1ncon1 [Example 63, [(R)-3-(4-Methoxy-3-[1,2,4]oxadiazol-3-yl-benzyl)-morpholin-4-yl]-(2-methyl-6-[1,2,3]triazol-2-yl-phenyl)-methanone] | – | – |
| 0.4 | 13 | Cc1cc(C(=O)N2CCOC[C@H]2Cc2ccc(C)c(-c3ncon3)c2)c(-n2nccn2)cc1C [Example 79, (4,5-Dimethyl-2-[1,2,3]triazol-2-yl-phenyl)-[(R)-3-(4-methyl-3-[1,2,4]oxadiazol-3-yl-benzyl)-morpholin-4-yl]-methanone] | – | – |
| 28 | 645 | O=C(c1cc(F)c(F)cc1-n1nccn1)N1CCOC[C@H]1Cc1cccc(-c2ncon2)c1 [Example 80, (4,5-Difluoro-2-[1,2,3]triazol-2-yl-phenyl)-[(R)-3-(3-[1,2,4]oxadiazol-3-yl-benzyl)-morpholin-4-yl]-methanone] | – | – |
| 41 | 1140 | O=C(c1cccc(F)c1-n1nccn1)N1CCOC[C@H]1Cc1cccc(-c2ncon2)c1 [Example 82, (3-Fluoro-2-[1,2,3]triazol-2-yl-phenyl)-[(R)-3-(3-[1,2,4]oxadiazol-3-yl-benzyl)-morpholin-4-yl]-methanone] | – | – |
| 42 | 2650 | O=C(c1ccc(Cl)cc1-n1nccn1)N1CCOC[C@H]1Cc1cccc(-c2ncon2)c1 [Example 86, (4-Chloro-2-[1,2,3]triazol-2-yl-phenyl)-[(R)-3-(3-[1,2,4]oxadiazol-3-yl-benzyl)-morpholin-4-yl]-methanone] | – | – |

— US9150566B2, “2-(1,2,3-triazol-2-yl)benzamide and 3-(1,2,3-triazol-2-YL)picolinamide derivatives as orexin receptor antagonists” (ACTELION PHARMACEUTICALS LTD., priority 2011, dated 2015)
